Source: patent publication US9981942B2, “Piperidine derivatives having multimodal activity against pain” (LABORATORIOS DEL DR. ESTEVE S.A., priority 2013, dated 2018)

Tested on: σ1 receptor and the μ-opiod receptor
Test: μ and σ1 dual binding: combined class from the Ki of both radioligand assays
Parameters: species or system human; key to μ and σ1 dual binding: +: Both Ki-μ and Ki-σ1>=500 nM; ++: One Ki<500 nM while the other Ki is >=500 nM; +++: Both Ki-μ and Ki-σ1<500 nM; ++++: Both Ki-μ and Ki-σ1<100 nM
Details: transfected HEK-293 membranes (σ1), transfected CHO-K1 cell membranes (μ); for μ and σ1 dual binding: combined class for Ki-μ and Ki-σ1
Method: To investigate binding properties of σ1 receptor ligands to human σ1 receptor, transfected HEK-293 membranes and [^3H](+)-pentazocine (Perkin Elmer, NET-1056), as the radioligand, were used. The assay was carried out with 7 μg of membrane suspension, 5 nM of [^3H](+)-pentazocine in either absence or presence of either buffer or 10 μM Haloperidol for total and non-specific binding, respectively. Binding buffer contained Tris-HCl 50 mM at pH 8. Plates were incubated at 37° C. for 120 minutes. After the incubation period, the reaction mix was then transferred to MultiScreen HTS, FC plates (Millipore), filtered and plates were washed 3 times with ice-cold 10 mM Tris-HCL (pH7.4). Filters were dried and counted at approximately 40% efficiency in a MicroBeta scintillation counter (Perkin-Elmer) using EcoScint liquid scintillation cocktail
To investigate binding properties of mu-opioid receptor ligands to human μ-opioid receptor, transfected CHO-K1 cell membranes and [^3H]-DAMGO (Perkin Elmer, ES-542-C), as the radioligand, were used. The assay was carried out with 20 μg of membrane suspension, 1 nM of [^3H]-DAMGO in either absence or presence of either buffer or 10 μM Naloxone for total and non-specific binding, respectively. Binding buffer contained Tris-HCl 50 mM, MgCl2 5 mM at pH 7.4. Plates were incubated at 27° C. for 60 minutes. After the incubation period, the reaction mix was then transferred to MultiScreen HTS, FC plates (Millipore), filtered and plates were washed 3 times with ice-cold 10 mM Tris-HCL (pH 7.4). Filters were dried and counted at approximately 40% efficiency in a MicroBeta scintillation counter (Perkin-Elmer) using EcoScint liquid scintillation cocktail.
The following scale as been adopted for representing the binding to the σ1 receptor and the μ-opiod receptor expressed as Ki: • + Both Ki-μ and Ki-σ1>=500 nM • ++ One Ki<500 nM while the other Ki is >=500 nM • +++ Both Ki-μ and Ki-σ1<500 nM • ++++ Both Ki-μ and Ki-σ1<100 nM

Oc1cccc(C2CCN(Cc3cn([C@@H]4CCC[C@H]4O)nn3)CC2)c1 (racemic) [Example 5, (±)-(trans)-3-(1-((1-(2-hydroxycyclopentyl)-1H-1,2,3-triazol-4-yl)methyl)piperidin-4-yl)phenol]
μ and σ1 dual binding: ++

CS(=O)(=O)Nc1cccc(C2CCN(Cc3cn([C@@H]4c5ccccc5C[C@H]4O)nn3)CC2)c1 (racemic) [Example 70, (±)-(trans)-N-(3-(1-((1-(2-hydroxy-2,3-dihydro-1H-inden-1-yl)-1H-1,2,3-triazol-4-yl)methyl)piperidin-4-yl)phenyl)methanesulfonamide]
μ and σ1 dual binding: ++

CC(C)S(=O)(=O)Nc1cccc([C@@H]2CCN(Cc3cn(-c4ccccc4)nn3)C[C@@H]2O)c1 (racemic) [Example 115, N-(3-((3R,4S)-3-hydroxy-1-((1-phenyl-1H-1,2,3-triazol-4-yl)methyl)piperidin-4-yl)phenyl)propane-2-sulfonamide]
Ki range for both μ and σ1 (dual-binding class): < 500 nM

CC(C)S(=O)(=O)Nc1cccc([C@H]2CCN(Cc3cn(-c4ccccc4)nn3)C[C@H]2O)c1 (racemic) [Example 127, N-(3-((3S,4R)-3-hydroxy-1-((1-phenyl-1H-1,2,3-triazol-4-yl)methyl)piperidin-4-yl)phenyl)propane-2-sulfonamide]
μ and σ1 dual binding: ++

OC[C@@H](c1ccccc1)n1cc(CN2CCC(c3cccc(O)c3)CC2)nn1 (stereo in doubt) [Example 149, (R)-3-(1-((1-(2-hydroxy-1-phenylethyl)-1H-1,2,3-triazol-4-yl)methyl)piperidin-4-yl)phenol]
Ki range for both μ and σ1 (dual-binding class): < 500 nM

OC[C@H](c1ccccc1)n1cc(CN2CCC(c3cccc(O)c3)CC2)nn1 (stereo in doubt) [Example 150, (S)-3-(1-((1-(2-hydroxy-1-phenylethyl)-1H-1,2,3-triazol-4-yl)methyl)piperidin-4-yl)phenol]
Ki range for both μ and σ1 (dual-binding class): < 500 nM

CC(C)S(=O)(=O)Nc1cccc(C2CCN(Cc3cn(-c4ccccc4)nn3)CC2)c1 [Example 1, N-(3-(1-((1-phenyl-1H-1,2,3-triazol-4-yl)methyl)piperidin-4-yl)phenyl)propane-2-sulfonamide]
Ki range for both μ and σ1 (dual-binding class): < 100 nM

Oc1cccc(C2CCN(Cc3cn(-c4ccccc4)nn3)CC2)c1 [Example 2, 3-(1-((1-phenyl-1H-1,2,3-triazol-4-yl)methyl)piperidin-4-yl)phenol]
Ki range for both μ and σ1 (dual-binding class): < 100 nM

CCCn1cc(CN2CCC(c3cccc(O)c3)CC2)nn1 [Example 3, 3-(1-((1-propyl-1H-1,2,3-triazol-4-yl)methyl)piperidin-4-yl)phenol]
Ki range for both μ and σ1 (dual-binding class): < 500 nM

Oc1cccc(C2CCN(Cc3cn(Cc4ccccc4F)nn3)CC2)c1 [Example 4, 3-(1-((1-(2-fluorobenzyl)-1H-1,2,3-triazol-4-yl)methyl)piperidin-4-yl)phenol]
Ki range for both μ and σ1 (dual-binding class): < 100 nM

NC(=O)c1cccc(C2CCN(Cc3cn(-c4ccccc4)nn3)CC2)c1 [Example 6, 3-(1-((1-phenyl-1H-1,2,3-triazol-4-yl)methyl)piperidin-4-yl)benzamide]
Ki range for both μ and σ1 (dual-binding class): < 500 nM

CCC(=O)Nc1cccc(C2CCN(Cc3cn(-c4ccccc4)nn3)CC2)c1 [Example 7, N-(3-(1-((1-phenyl-1H-1,2,3-triazol-4-yl)methyl)piperidin-4-yl)phenyl)propionamide]
Ki range for both μ and σ1 (dual-binding class): < 500 nM

Oc1cccc(C2CCN(Cc3cn(Cc4ccccc4)nn3)CC2)c1 [Example 8, 3-(1-((1-benzyl-1H-1,2,3-triazol-4-yl)methyl)piperidin-4-yl)phenol]
Ki range for both μ and σ1 (dual-binding class): < 100 nM

CC(=O)Nc1cccc(C2CCN(Cc3cn(-c4ccccc4)nn3)CC2)c1 [Example 9, N-(3-(1-((1-phenyl-1H-1,2,3-triazol-4-yl)methyl)piperidin-4-yl)phenyl)acetamide]
Ki range for both μ and σ1 (dual-binding class): < 500 nM

Oc1cccc(C2CCN(Cc3cn(-c4cccnc4)nn3)CC2)c1 [Example 10, 3-(1-((1-(pyridin-3-yl)-1H-1,2,3-triazol-4-yl)methyl)piperidin-4-yl)phenol]
Ki range for both μ and σ1 (dual-binding class): < 500 nM

c1ccc(-n2cc(CN3CCC(c4cccc5[nH]cnc45)CC3)nn2)cc1 [Example 11, 4-(1-((1-phenyl-1H-1,2,3-triazol-4-yl)methyl)piperidin-4-yl)-1H-benzo[d]imidazole]
μ and σ1 dual binding: ++

Oc1ccc(C(F)(F)F)c(C2CCN(Cc3cn(-c4ccccc4)nn3)CC2)c1 [Example 12, 3-(1-((1-phenyl-1H-1,2,3-triazol-4-yl)methyl)piperidin-4-yl)-4-(trifluoromethyl)phenol]
μ and σ1 dual binding: ++

O=c1[nH]c2cccc(C3CCN(Cc4cn(-c5ccccc5)nn4)CC3)c2[nH]1 [Example 13, 4-(1-((1-phenyl-1H-1,2,3-triazol-4-yl)methyl)piperidin-4-yl)-1H-benzo[d]imidazol-2(3H)-one]
μ and σ1 dual binding: ++

Oc1cccc(C2CCN(Cc3cn(-c4ccncc4)nn3)CC2)c1 [Example 14, 3-(1-((1-(pyridin-4-yl)-1H-1,2,3-triazol-4-yl)methyl)piperidin-4-yl)phenol]
Ki range for both μ and σ1 (dual-binding class): < 500 nM

Oc1cccc(C2CCN(Cc3cn([C@@H]4c5ccccc5C[C@H]4O)nn3)CC2)c1 [Example 15, (1R,2R)-1-(4-((4-(3-hydroxyphenyl)piperidin-1-yl)methyl)-1H-1,2,3-triazol-1-yl)-2,3-dihydro-1H-inden-2-ol]
Ki range for both μ and σ1 (dual-binding class): < 500 nM

CS(=O)(=O)Nc1cccc(C2CCN(Cc3cn(-c4ccc(F)cc4)nn3)CC2)c1 [Example 16, N-(3-(1-((1-(4-fluorophenyl)-1H-1,2,3-triazol-4-yl)methyl)piperidin-4-yl)phenyl)methanesulfonamide]
Ki range for both μ and σ1 (dual-binding class): < 500 nM

CNS(=O)(=O)c1cccc(C2CCN(Cc3cn(-c4ccccc4)nn3)CC2)c1 [Example 17, N-methyl-3-(1-((1-phenyl-1H-1,2,3-triazol-4-yl)methyl)piperidin-4-yl)benzenesulfonamide]
μ and σ1 dual binding: ++

CS(=O)(=O)Nc1ccc(F)c(C2CCN(Cc3cn(-c4ccccc4)nn3)CC2)c1 [Example 18, N-(4-fluoro-3-(1-((1-phenyl-1H-1,2,3-triazol-4-yl)methyl)piperidin-4-yl)phenyl)methanesulfonamide]
Ki range for both μ and σ1 (dual-binding class): < 100 nM

Oc1cccc(C2CCN(Cc3cn(C4CCCCC4)nn3)CC2)c1 [Example 19, 3-(1-((1-cyclohexyl-1H-1,2,3-triazol-4-yl)methyl)piperidin-4-yl)phenol]
Ki range for both μ and σ1 (dual-binding class): < 100 nM

CS(=O)(=O)Nc1ccc(C(F)(F)F)c(C2CCN(Cc3cn(-c4ccccc4)nn3)CC2)c1 [Example 20, N-(3-(1-((1-phenyl-1H-1,2,3-triazol-4-yl)methyl)piperidin-4-yl)-4-(trifluoromethyl)phenyl)methanesulfonamide]
μ and σ1 dual binding: ++

c1ccc(-n2cc(CN3CCC(c4ccc5nc[nH]c5c4)CC3)nn2)cc1 [Example 21, 6-(1-((1-phenyl-1H-1,2,3-triazol-4-yl)methyl)piperidin-4-yl)-1H-benzo[d]imidazole]
Ki range for both μ and σ1 (dual-binding class): < 500 nM

CS(=O)(=O)Nc1cccc(C2CCN(Cc3cn(C4CCCCC4)nn3)CC2)c1 [Example 22, N-(3-(1-((1-cyclohexyl-1H-1,2,3-triazol-4-yl)methyl)piperidin-4-yl)phenyl)methanesulfonamide]
Ki range for both μ and σ1 (dual-binding class): < 500 nM
